Experimental data: US4973691A, “Etheric derivative of 4(3H)-quinazolinone and a process for preparation thereof” (Spojene Podniky Prozdravotnickou Vyrobu (SPOFA), priority 1988, dated 1990)
Structures can show the parent of a compound that is named as a salt.

Assays:
analgesic activity = format: in vivo; details: for ED50 (analgesic activity): p.o.; for ED50: po
in vivo = details: po
gastrotoxicity = details: in vivo
[1] = extensive investigations in recent years; cited from earlier work
[2] = LD50 (acute (short-time) toxicity)

SMILES | LD50 (in vivo; [2]) [mg/kg] | ED50 (analgesic activity) [mg/kg] | further results
O=c1c2ccccc2ncn1CCOc1ccc(-c2ccc(F)cc2F)cc1 [Preferred etheric derivative (hydrochloride salt)] |  |  | ED50 (analgesic activity) (analgesic activity): 26 mg/kg
O=c1c2ccccc2ncn1CCOc1ccc(-c2ccc(F)cc2F)cc1 | 2000 |  | 
O=c1c2ccccc2ncn1CCOc1ccc(-c2ccc(F)cc2F)cc1 [Preferred etheric derivative (base), 3-[2-(2',4'-difluoro-4-biphenylyloxy)ethyl]-4(3H)-quinazolinone] | 1000 |  | ED50 (analgesic activity) (analgesic activity): 71 mg/kg; signs of gastrotoxicity (gastrotoxicity): free of any signs of gastrotoxicity; signs of cancerogenity (cancerogenity): free of any signs of gastrotoxicity and cancerogenity
Cc1c(N(C)C)c(=O)n(-c2ccccc2)n1C [Aminophenazone, 1-phenyl-2,3-dimethyl-4-dimethylamino-5-pyrazolone] |  | 104 | LD50 (in vivo): 800 mg/kg; cancerogenic properties [1]: potentially cancerogenic properties
CC(=O)Nc1ccc(O)cc1 [Paracetamol, 4-hydroxyacetanilide] | 1090 | 285 | 
CC(C)Cc1ccc(C(C)C(=O)O)cc1 (centres unmarked) [Ibuprofen, 2-(4-isobutylphenyl)propionic acid] |  | 179 | 
CC(=O)Oc1ccccc1C(=O)O [Acetylosalicylic acid] |  | 190 | LD50 (in vivo): 1070 mg/kg
